Measurements from PubChem BioAssay (NCI).
Several values for one entry are separate records, joined by “and”; a condition that tells them apart may be missing. Equal entries are not always repeated.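 How tested: cells in 96-well plates exposed to compound for 48 hours at five concentrations. Here, GI50 denotes the concentration required for 50% inhibition of growth. TGI is the concentration that stops growth completely.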

Assays:
Assay in all cases: NCI-60 cell line screen, 48 h
[1] = test system: SNB-19 CNS
[2] = test system: SK-MEL-2 melanoma
[3] = test system: HOP-92 NSCLC
[4] = test system: SF-295 CNS
[5] = test system: TK-10 renal
[6] = test system: OVCAR-8 ovarian
[7] = test system: SF-268 CNS
[8] = test system: NCI-H522 lung
[9] = test system: MALME-3M melanoma
[10] = test system: SN12C renal

Row | SMILES | TGI [1] [µM] | TGI [2] | TGI [3] | TGI [4] | TGI [5] [µM] | TGI [6] [µM] | TGI [7] [µM] | TGI [8] [µM] | TGI [9] | TGI [10] [µM] | GI50 [1] [µM] | GI50 [2] [µM] | GI50 [3] [µM] | GI50 [4] [µM] | GI50 [5] [µM] | GI50 [6] [µM] | GI50 [7] [µM] | GI50 [8] [µM] | GI50 [9] [µM] | GI50 [10] [µM]
1 | O=C(N/N=C1\C(=O)N(c2nccs2)C(=O)C(=O)C1c1nc2ccccc2s1)c1ccccc1O (stereo not drawn) | > 100 | > 100 µM | > 100 µM | > 100 µM | > 100 | > 100 | > 100 | 96.9 | > 100 µM | > 100 |  |  |  |  |  |  |  |  |  | 
2 | N#CC1(C#N)C2C=CC(c3coc4cccc2c34)C1(C#N)C#N (stereo not drawn) | 33.8 | 92.6 µM | 35 µM | 42.8 µM | 18.6 | 10.4 | 20.3 | 3.4 | 18.8 µM | 23.2 |  |  |  |  |  |  |  |  |  | 
3 | C=C1C(=O)O[C@H]2[C@H]1CC/C(COC(=O)C(C)c1ccc(CC(C)C)cc1)=C\CC[C@@]1(C)O[C@@H]21 (stereo partly drawn) | 2.87 | 3.72 µM | 2.14 µM | 7.39 µM | 3.19 | 3.51 | 3.5 | 3.4 | 2.99 µM | 2.72 | 1.49 | 1.89 | 0.747 | 2.47 | 1.74 | 1.32 | 1.72 | 1.71 | 1.56 | 1.34
4 | Oc1ccc(C2c3ccccc3Oc3ccccc32)c2cccnc12 | > 100 | 69.5 µM | 98.7 µM | > 100 µM | > 100 | > 100 | > 100 | > 100 | 27.4 µM | > 100 | 1.85 | 2.31 | 1.86 | 0.499 | 1.09 | 1.6 | 1.29 | 2.57 | 2.83 | 1.65
5 | Fc1cccc(-n2ccc(-c3ccccc3)nc2=S)c1 | > 59.7 | > 100 µM | 41.6 µM | > 82.6 µM | 36 | > 57.7 | > 100 | 64.5 | > 100 µM | 10.4 | 12.9 | > 100 | 0.862 | 44.1 | 18.2 | 26.6 | 32.3 | 22.7 | 65.3 | 3.01
6 | CCC(=O)Nc1ccc(C)c(-c2ccc(C(=O)NCC3CC3)cc2)c1 | > 25 | > 25 µM | > 25 µM | > 25 µM | > 25 | > 25 | > 25 | > 25 | > 25 µM | > 25 | > 25 | > 25 | > 25 | > 25 | > 25 | > 25 | > 25 | > 25 | > 25 | > 25
7 | NS(=O)(=O)NCCNc1nonc1C(=Nc1ccc(F)c(Br)c1)NO | > 100 | 97 µM | 86.2 µM | > 100 µM | > 100 | > 100 | > 100 | 97.5 | > 100 µM | > 100 | 48.2 | 27.8 | 23.6 | 27 | 29.8 | 56.5 | 38.8 | 36.2 | 28.5 | 41.3
8 | Cn1c(N)nc(=O)c2c1N(C1OC(CO)C(O)C1O)CN2Cc1ccccc1 (stereo not drawn) | > 100 | > 100 µM | > 100 µM | > 100 µM | > 100 | > 100 | > 100 | > 100 | > 100 µM | > 100 |  |  |  |  |  |  |  |  |  | 
9 | Cc1cc2c(C(N)=O)c(N)n(-c3c(C)ccc(O)c3C)c2nc1C | > 100 | 21.2 µM | 14.1 µM | 35.4 µM | 23.9 | 18 | 52.9 | 5.09 | 18.3 µM | 34.5 | 8.28 | 3.59 | 1 | 0.871 | 4.11 | 3.12 | 9.28 | 1.48 | 3.08 | 2.48
10 | COc1ccc(/C=C2\CCC(CCN(C)C)(C3=CCCC3)C2=O)cc1Br (stereo not drawn) | 22.1 | 22.2 µM | 11.3 µM | 13.7 µM | 20 | 21.9 | 23 | 3.98 | 28 µM | 22 |  |  |  |  |  |  |  |  |  | 
11 | O=C1/C(=C/c2ccc(Cl)cc2)CCC/C1=C\c1ccc(Cl)cc1 | > 100 | > 100 µM | > 100 µM | > 100 µM | > 100 | > 100 | 12.7 | 8.52 | > 100 µM | > 100 | 6.69 | > 100 | > 100 | 3.83 | 6.81 | 3.64 | 3.24 | 2.78 | > 100 | 6.06
12 | CCc1ccc(C(=Nc2ccc(N(C)C(=O)CN3CCN(C)CC3)cc2)c2c(O)[nH]c3ccc(C(=O)OC)cc23)cc1 | 2.09 | 2.83 µM | 2.63 µM | 2.4 µM | 2.11 | 3.21 | 2.8 | 2.38 | 1.9 µM | 1.61 | 0.775 | 1.23 | 1.23 | 1.01 | 0.233 | 0.772 | 1.18 | 0.586 | 0.516 | 0.223
13 | CCOC(=O)c1cc(-c2ccccc2)[nH]c1N/N=C/c1ccc(Cl)cc1 | > 100 | > 100 µM | > 100 µM | > 100 µM | > 100 | > 100 | > 100 | > 100 | > 100 µM | > 100 | > 100 | 62.6 | 46.9 | > 100 | > 100 | > 100 | > 100 | 89.4 | > 100 | > 100
14 | COC(=O)C12OCC34C(CC5C(C)C6=CC(=O)OC6=CC5(C)C3C(O)C1O)OC(=O)C(O)C24 (stereo not drawn) |  | 0.944 µM and 2.43 µM | 0.525 µM and 2.33 µM | 0.956 µM and 6.03 µM | 58.2 | 14.7 | 3.34 |  | 0.351 µM and 0.665 µM | 34.1 | 0.0525 | 0.313 | 0.146 | 0.351 | 0.534 | 0.328 | 0.287 | 0.0501 | 0.0896 | 0.416
15 | CC1(N)CCN(c2cnc(-c3cccc(Cl)c3Cl)c(N)n2)CC1 | > 100 | 46.4 µM | 5.44 µM | 27.2 µM | 53.2 | > 100 | > 100 | 65.8 | 32.1 µM | > 100 | 7.63 | 20.1 | 0.553 | 11.1 | 2.8 | 28.2 | 22.7 | 14.9 | 16.4 | 15.6
16 | N#Cc1c(N)nc(N2CCOCC2)c(C#N)c1-c1ccccn1 | > 100 | > 100 µM | > 100 µM | > 100 µM | > 100 | > 100 | > 100 | > 100 | > 100 µM | > 100 | > 100 | > 100 | > 52.8 | > 100 | > 100 | > 100 | > 100 | > 100 | > 100 | > 100
17 | O=C1OC(=O)C2CCCC3CCCC1C32 (stereo not drawn) | > 100 | > 100 µM | > 100 µM | > 100 µM | > 100 | > 100 | > 100 | > 100 | > 100 µM | > 100 |  |  |  |  |  |  |  |  |  | 
18 | CCOC(=O)C(CC/C=C\c1ccccc1)N1CCC[C@H]1C(=O)OC (stereo partly drawn) | > 100 | > 100 µM | > 100 µM | > 100 µM | > 100 | > 100 | > 100 | > 100 | > 100 µM | > 100 |  |  |  |  |  |  |  |  |  | 
19 | O=C(O)c1c(=O)cccc2ssc12 | 3.79 | 3.83 µM | 3.79 µM | 3.17 µM | 3.23 | 3.18 | 3.46 | 3.24 | 4.45 µM | 6.32 | 1.92 | 2.03 | 1.86 | 1.67 | 1.75 | 1.76 | 1.73 | 1.61 | 2.22 | 2.49
20 | COC(=O)c1cc2c3ccccc3[nH]c2c2sccc12 | 79.7 | > 100 µM | 99.7 µM | 48.7 µM | 52.6 | > 100 | > 100 | > 100 | 62.7 µM | 61.8 | 23.6 | 40.8 | 17.2 | 8.57 | 13.8 | 38.3 | 32.4 | 17.2 | 29.3 | 21.8
21 | C/C(=N\NC(=S)SCc1ccccc1)c1ccccn1 | 18.3 | 11.6 µM | 2.14 µM | 9.26 µM | 13.5 | 0.326 | 11.4 | 2.79 | 7.4 µM | 3.13 |  |  |  |  |  |  |  |  |  | 
22 | O=C(NO)[C@@H](Cc1ccccc1)NS(=O)(=O)c1ccc(-c2ccccc2)cc1 | > 25 | > 25 µM | 20.9 µM | > 25 µM | > 25 | > 25 | > 25 | > 25 | > 25 µM | > 25 | > 25 | > 25 | 4.7 | > 25 | 19.1 | 22.5 | 11.6 | > 25 | > 25 | > 25
23 | O=C1C2C(C(=O)N1c1ccccc1)C1([N+](=O)[O-])C=C3c4ccccc4N(C(=O)c4ccccc4)C32C2C(=O)N(c3ccccc3)C(=O)C21 (stereo not drawn) | > 100 | > 100 µM | > 100 µM | > 100 µM | > 100 | > 100 | > 100 | > 100 | > 100 µM | > 100 |  |  |  |  |  |  |  |  |  | 
24 | CCCCCCCCCNC(=O)/C=C/c1ccc(O)c(O)c1 | 50.3 | 37.2 µM | 17.3 µM | 40.3 µM | 39.7 | 59.3 | 31.9 | 9.91 | 31.4 µM | 23.1 | 21.4 | 17.3 | 2.52 | 18.8 | 11.1 | 24 | 10.9 | 0.833 | 13.2 | 10.8
25 | Cc1cccc(C(C)(C)C)c1NC(=O)CCc1nc(=S)[nH][nH]1 | > 100 | > 100 µM | > 100 µM | > 100 µM | > 100 | > 100 | > 100 | > 100 | > 100 µM | > 100 |  |  |  |  |  |  |  |  |  | 
